Test results published in US20050048508A1, “Trehalose receptor and method for detecting trehalose with the same” (KABUSHIKI KAISHA HAYASHIBARA SEIBUTSU KAGAKU KENKYUJO, priority 2002, published 2005).

Target: T1, T1R3 with G protein α-subunits (α15 and α16/Z chimeric protein) (Mus musculus, UniProt Q925D8, I706N)
T1 construct: expressed in transfected cells; host or cells: 293 cells, RCB 1637 (human embryonic kidney)
T1 sequence (Q925D8 21-858 I706N): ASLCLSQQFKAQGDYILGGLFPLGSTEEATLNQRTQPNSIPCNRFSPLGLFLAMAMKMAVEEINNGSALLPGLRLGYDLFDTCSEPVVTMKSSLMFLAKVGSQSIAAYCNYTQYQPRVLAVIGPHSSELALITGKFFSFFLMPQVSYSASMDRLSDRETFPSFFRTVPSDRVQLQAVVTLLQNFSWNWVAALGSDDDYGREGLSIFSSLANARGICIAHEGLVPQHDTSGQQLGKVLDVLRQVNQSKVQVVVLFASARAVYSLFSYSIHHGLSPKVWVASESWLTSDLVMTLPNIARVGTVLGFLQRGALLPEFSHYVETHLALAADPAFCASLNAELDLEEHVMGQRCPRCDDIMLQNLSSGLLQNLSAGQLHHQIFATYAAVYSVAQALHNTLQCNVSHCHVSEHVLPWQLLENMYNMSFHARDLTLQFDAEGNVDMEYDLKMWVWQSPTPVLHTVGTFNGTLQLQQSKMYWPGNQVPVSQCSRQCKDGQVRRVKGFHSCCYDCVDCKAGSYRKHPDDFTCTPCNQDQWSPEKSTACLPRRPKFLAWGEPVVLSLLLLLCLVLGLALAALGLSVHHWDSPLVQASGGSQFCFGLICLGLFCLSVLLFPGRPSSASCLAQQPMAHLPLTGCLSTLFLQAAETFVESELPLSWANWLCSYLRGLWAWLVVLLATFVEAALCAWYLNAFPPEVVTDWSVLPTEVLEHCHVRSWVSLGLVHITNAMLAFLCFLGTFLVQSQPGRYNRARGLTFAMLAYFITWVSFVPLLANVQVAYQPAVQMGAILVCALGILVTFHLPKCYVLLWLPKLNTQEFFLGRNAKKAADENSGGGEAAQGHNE
Assay: Intracellular calcium ion assay, 293 cells coexpressing G protein α-subunits and T1R3 (trehalose receptor)
Type: cell-based
Procedure: The coexpression vector for the G protein α-subunit α15 and the G protein α16/Z chimeric protein (hereinafter designated as “G protein α-subunits”) obtained in Example 1-3 was gene transferred to 293 cells, RCB 1637, a human embryonic kidney cell line, available from the Riken Bioresource Center, Ibaraki, Japan, by conventional lipofection. The gene transferred cells were suspended in Dulbecco's Modified Eagle's Medium (D-MEM) supplemented with 1 mg/L of “PUROMYCIN”, a trade mane of puromycin commercialized by Edge Biosystems, MD, USA, and 10% (v/v) of fetal calf serum to give a cell density of 2×10^6 cells/ml and cultured in a plastic petri dish for cell culture. After 10 to 14 days of incubation, a puromycin-resistant cell colony was collected and confirmed its production of the G protein α-subunit proteins with an index of their mRNA level by conventional RT-PCR. Thus, a cell line capable of expressing the G protein α-subunit proteins was established. To the cells were gene transferred an expression vector for the sweet taste receptor protein T1R1, T1R2, or T1R3 in Example 2-2; or a coexpression vector for a pair of T1R1 and T1R2, T1R1 and T1R3, or T1R2 and T1R3 by conventional lipofection. The resulting cells were suspended in D-MEM supplemented with 1 mg/L of “PUROMYCIN”, 500 mg/L of “GENETICIN”, and 10% (v/v) of fetal calf serum and cultured in a plastic petri dish for cell culture. After 10 to 14 days of incubation, a cell colony resistant to both of the above drugs was collected and confirmed that the transferred gene had been expressed intracellularly as expected by conventional RT-PCR at a mRNA level. Thus, a cell, which had coexpressed the desired G proteins and sweet taste receptors, was obtained. As a control, a cell, into which an expression vector with no G protein α-subunit protein gene or sweet taste receptor protein gene, was prepared and used.
The captioned reactivity test was conducted according to a conventional intracellular calcium ion assay: 293 Cells prepared in Example 3, capable of coexpressing the G protein α-subunits and the sweet taste receptor(s), were cultured in a plastic petri dish for cell culture until reaching its confluent phase. Thereafter, the cells were detached from the inner surface of the petri dish with a 0.05% (v/v) trypsin solution and a 0.53 mM EDTA solution, suspended in D-MEM supplemented with 10% (v/v) fetal calf serum to give a cell density of 1×10^6 cells/ml, and allowed to intake “FLUO-4. AM”, a reagent for detecting intracellular calcium ion commercialized by Molecular Probes Inc., Ore., USA, by adding to the cell suspension to give a final concentration of 2 μM and incubating the cells at 37 ° C. for 30 to 90 min. The resulting cells were washed with a buffer for detecting calcium ion, which contained 10 mM HEPES (pH 7.4), 130 mM sodium chloride, 5.4 mM potassium chloride, 2 mM calcium chloride, 1 mM magnesium chloride, 5.5 mM D-glucose, 0.1% (v/v) calf serum albumin, and 1 mM sodium pyruvate to remove the reagent remained extracellularly; suspended in a fresh preparation of the same buffer to give a cell density of 2.67 ×10^7 cells/ml; filtered with a membrane with a pore size of 100 μm mesh; and allowed to stand at 25° C. for 30 min. Two milliliters of the resultant cell suspension was injected into a glass cuvette, commercialized by Hitachi, Ltd., Tokyo, Japan, and analyzed on “HITACHI 650-40”, a fluorescence spectrophotometer commercialized by Hitachi, Ltd., Tokyo, Japan. […]

[1] = 293 cells: T1R3 + G protein α-subunits, 0.67 ml of 1 M saccharide solution added to 2 ml cell suspension, FLUO-4 AM
[2] = Table 4: sweet taste substances on cells coexpressing G protein α-subunits and T1R3, measured similarly as in Example 4

Row | Influx of calcium ion [1] | Influx of calcium ion [2] | Influx of calcium ion (293 cells: T1R3 + G protein α-subunits, 0.67 ml of 1 M saccharide solution added to 2 ml cell suspension, FLUO-4 AM, listed as trehalose) | Compound
1 | Negative | Negative |  | OC[C@H]1O[C@@](CO)(O[C@H]2O[C@H](CO)[C@@H](O)[C@H](O)[C@H]2O)[C@@H](O)[C@@H]1O [Sucrose, reference compound]
2 | Positive | Positive | reacted | OC[C@H]1O[C@H](O[C@H]2O[C@H](CO)[C@@H](O)[C@H](O)[C@H]2O)[C@H](O)[C@@H](O)[C@@H]1O [Trehalose]
